Residues, ends and D or L forms follow the SMILES beside them. *: point of attachment. Fmoc = O=C(OCC1c2ccccc2-c2ccccc21)*; Cbz = O=C(OCc1ccccc1)*; Boc = CC(C)(C)OC(=O)*
Molecular target: T1, FGF14:Nav1.6 complex (Homo sapiens, UniProt Q92915)
T1 construct: FGF14 and the C-tail of Nav1.6 channels are fused to vectors expressing CLuc and NLuc luciferase reporter; expressed in transfected cells; host or cells: HEK293, transient transfection
T1 sequence (Q92915 1-252 isoform Q92915-2): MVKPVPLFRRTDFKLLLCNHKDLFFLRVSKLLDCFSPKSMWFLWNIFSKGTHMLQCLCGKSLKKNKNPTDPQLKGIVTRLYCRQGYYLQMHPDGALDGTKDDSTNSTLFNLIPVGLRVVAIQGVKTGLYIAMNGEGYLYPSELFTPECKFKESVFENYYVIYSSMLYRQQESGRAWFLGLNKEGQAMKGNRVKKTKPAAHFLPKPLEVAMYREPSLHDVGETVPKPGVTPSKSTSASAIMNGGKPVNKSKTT
Assay: Split-luciferase complementation assay (LCA) in HEK293 cells expressing CLuc-FGF14 and CD4-Nav1.6-NLuc
Assay type: cell-based
Settings: 50 μM, normalized to DMSO control
Procedure: Detailed methods for LCA can be found is known in the art. See e.g., Shavkunov A. S., et al., Methods in Molecular Biology 1278:497-514 (2015). Statistical values were calculated as mean and standard error of the mean (mean±SEM), unless otherwise specified. The statistical significance (*p<0.05) of different groups was determined by Student's t-test, one-way ANOVA with post-hoc Bonferroni's method or Kruskal-Wallis one-way ANOVA on ranks with post-hoc Dunn's method using Sigma Stat (San Jose, Calif.) and Graph PrismR (La Jolla, Calif.) software. Dose-response modulation was determined by: y=START+(END−START)*x^n/(k^n+x^n) where k, Michaelis constant; n, cooperative sites; x, independent variable; y, dependable variable.
To monitor the role of compounds of the invention in the FGF14:Nav1.6 complex, certain embodiments of the invention were screened by split-luciferase complementation assay (LCA) where FGF14 and the C-tail of Nav1.6 channels are fused to vectors expressing CLuc and NLuc luciferase reporter. Compounds of the invention, as exemplified by, compounds ZL0141, ZL0148, ZL0181, and ZL0182 (see FIG. 1) were tested at 50 μM in HEK293 cells expressing CLuc-FGF14 and CD4:Nav1.6-NLuc. […] None of the tested compounds interfered with the full-length luciferase enzyme (FIG. 2B, Chart C). Dose-response studies were then performed with compounds ZL0148, ZL0181, and ZL0182 against the FGF14:Nav1.6 complex.

Structure (SMILES) | luminescence response compared to control (DMSO) [%]
CC(=O)N[C@@H](Cc1ccccc1)C(=O)N[C@@H](CC(C)C)C(=O)N[C@@H](CCCCNC(=O)OC(C)(C)C)C(N)=O [ZL0148, Ac-Phe-Leu-Lys(Boc)-NH2] (Ac-Phe-Leu-Lys(Boc)-NH2) | 132±9
CC(C)C[C@H](NC(=O)[C@H](Cc1ccccc1)NC(=O)OCc1ccccc1)C(=O)N1CCC[C@H]1C(N)=O [ZL0141, Z-Phe-Leu-Pro-NH2] (Cbz-Phe-Leu-Pro-NH2) | 103±14
CC(=O)N[C@@H](Cc1ccccc1)C(=O)N[C@@H](CC(C)C)C(=O)N1CCC[C@H]1C(=O)N[C@@H](CCCCNC(=O)OCC1c2ccccc2-c2ccccc21)C(=O)O [ZL0182, Ac-Phe-Leu-Pro-Lys(Fmoc)-OH] (Ac-FLPK(Fmoc)-OH) | 129±13
